# Data reported in ChEMBL document CHEMBL1201862, “PubChem BioAssay data set” (2004).
#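 Growth conditions: 96-well plates. Treatment: test compound, 48 hours, 5 concentrations. Analysis: linear interpolation between bracketing concentrations; unreached endpoints set to highest concentration. GI50 marks 50% less growth.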 The source made the active and inactive calls. No stated cut-off is given here; in the data, active = GI50 up to about 1.1 µM and inactive = higher.
# Legend:
# Test in all cases: inhibition of tumour cell growth, NCI panel, 48 h
# [1] = system: HL-60
# [2] = system: 786-0
# [3] = system: HOP-62
# [4] = system: EKVX
# [5] = system: A549
# [6] = system: PC-3
# [7] = system: SF-268
# [8] = system: DU-145
# [9] = system: CAKI-1
# [10] = system: K562
# [11] = system: OVCAR-8
# [12] = system: SF-295
# [13] = system: NCI-H23
# [14] = system: Hs-578T
# [15] = system: OVCAR-3
# [16] = system: UO-31
# [17] = system: OVCAR-4
# [18] = system: SR
# [19] = system: SNB-19
# [20] = system: SK-OV-3
SMILES,GI50 [1],GI50 [2],GI50 [3],GI50 [4],GI50 [5],GI50 [6],GI50 [7],GI50 [8],GI50 [9],GI50 [10],GI50 [11],GI50 [12],GI50 [13],GI50 [14],GI50 [15],GI50 [16],GI50 [17],GI50 [18],GI50 [19],GI50 [20]
CC1=NN(c2nc(N)nc(/C(C#N)=C/c3ccc([N+](=O)[O-])o3)n2)C(C)(C)C1,2.35 µM (inactive),1.57 µM (inactive),17.2 µM (inactive),3.37 µM (inactive),13.1 µM (inactive),9.68 µM (inactive),3.85 µM (inactive),6.35 µM (inactive),1.85 µM (inactive),0.315 µM (active),2.51 µM (inactive),16.5 µM (inactive),3.45 µM (inactive),13.2 µM (inactive),3.32 µM (inactive),2.92 µM (inactive),10.2 µM (inactive),2.58 µM (inactive),15.7 µM (inactive),21.1 µM (inactive)
Cn1c2ccccc2n2c3ncccc3/c(=N/CCCC(=O)O)c(C#N)c12,> 100 µM (inactive),> 100 µM (inactive),> 100 µM (inactive),> 100 µM (inactive),> 100 µM (inactive),> 100 µM (inactive),> 100 µM (inactive),> 100 µM (inactive),> 100 µM (inactive),> 100 µM (inactive),> 100 µM (inactive),> 100 µM (inactive),> 100 µM (inactive),> 100 µM (inactive),> 100 µM (inactive),> 100 µM (inactive),> 100 µM (inactive),> 100 µM (inactive),> 100 µM (inactive),> 100 µM (inactive)
O=C(NNc1ccnc2cc(Cl)ccc12)/C(=C\c1ccccc1Cl)NC(=O)c1ccccc1,23.4 µM (inactive),41.6 µM (inactive),19.2 µM (inactive),31.8 µM (inactive),38.2 µM (inactive),36.1 µM (inactive),27.4 µM (inactive),55.7 µM (inactive),86.3 µM (inactive),34.6 µM (inactive),20 µM (inactive),27.5 µM (inactive),54.7 µM (inactive),32.5 µM (inactive),16.5 µM (inactive),38.9 µM (inactive),32.8 µM (inactive),35 µM (inactive),46.2 µM (inactive),> 100 µM (inactive)
O=C(O)c1cccc(CC(Br)C(=O)O)c1 (stereo not given),> 100 µM (inactive),> 100 µM (inactive),> 100 µM (inactive),> 100 µM (inactive),> 100 µM (inactive),> 100 µM (inactive),> 100 µM (inactive),> 100 µM (inactive),> 100 µM (inactive),> 100 µM (inactive),> 100 µM (inactive),> 100 µM (inactive),> 100 µM (inactive),> 100 µM (inactive),> 100 µM (inactive),> 100 µM (inactive),> 100 µM (inactive),> 100 µM (inactive),> 100 µM (inactive),> 100 µM (inactive)
CC(=O)OC1C(C)OC(OC2C[C@](O)(C(C)=O)Cc3c(O)c4c(c(O)c32)C(=O)c2ccccc2C4=O)C(F)C1OC(C)=O (stereo not given in full),0.154 µM (active),0.287 µM (active),0.367 µM (active),3.68 µM (inactive),0.154 µM (active),0.971 µM (active),0.541 µM (active),0.23 µM (active),0.13 µM (active),1.63 µM (inactive),0.543 µM (active),0.13 µM (active),0.245 µM (active),0.476 µM (active),2.52 µM (inactive),0.115 µM (active),3.74 µM (inactive),0.101 µM (active),0.245 µM (active),0.617 µM (active)
